Source: patent publication US20260176627A1, “DUAL-RNA-GUIDED, SPLIT-PEGRNA RECORDER FOR MOLECULAR INTERACTION” (University of Washington, priority 2022, published 2026)

Molecular target: T1, PYL-MCP and LambdaN-ABI (Arabidopsis thaliana, UniProt Q8VZS8)
T1 construct: expressed in transfected cells; host or cells: HEK293T
Test: Split-pegRNA recording of abscisic acid (ABA)-induced dimerization of PYL-MCP and LambdaN-ABI
Format: cell-based
Conditions: PYL-ABI pair, abscisic acid added to cell culture
Excerpt: FIG. 3. Recording protein-protein interaction and small molecule exposure using Split-pegRNA recorders. a-b. Design of Split-pegRNA recorder with protein adaptors to record protein-protein interaction (a) and exposure to small molecule (b). c. Normalized editing efficiency of different pairs of constructs tagged with MCP and LambdaN adaptors. Editing efficiencies are scaled (“normalized”) to positive editing control of CTT insertion to HEK3 locus by epegRNA (“eCTT control”). In MCP-LambdaN condition, a single protein-expression construct with MCP tethered with LambdaN was transfected instead of a pair of protein-expression constructs. […]
In the past 30 years, several chemicals have been identified as critical signaling molecules for promoting protein-protein interactions^8. We reasoned that the exposure of these “molecular glue” small molecules to cells can be recorded into the genome using specifically engineered split-pegRNA recorders. […]
Sequencing reads from Illumina MiSeq™ and NextSeq™ platforms are first demultiplexed using BCL2fastq software (Illumina). […] Editing efficiencies were calculated using pattern-matching software such as Regular Expression (package REGEX) in Python, counting correct amplicon reads with or without intended edits (CTT insertion to HEK3 locus^1).

T1 sequence (Q8VZS8 other isoform, or with tags, fused parts or gaps): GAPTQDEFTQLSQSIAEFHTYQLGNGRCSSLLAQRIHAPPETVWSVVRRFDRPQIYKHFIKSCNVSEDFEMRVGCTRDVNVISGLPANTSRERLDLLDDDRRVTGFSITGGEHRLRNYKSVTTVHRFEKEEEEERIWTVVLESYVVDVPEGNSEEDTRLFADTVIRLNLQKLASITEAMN
T1 sequence (P49597 other isoform, or with tags, fused parts or gaps D143A, further chain): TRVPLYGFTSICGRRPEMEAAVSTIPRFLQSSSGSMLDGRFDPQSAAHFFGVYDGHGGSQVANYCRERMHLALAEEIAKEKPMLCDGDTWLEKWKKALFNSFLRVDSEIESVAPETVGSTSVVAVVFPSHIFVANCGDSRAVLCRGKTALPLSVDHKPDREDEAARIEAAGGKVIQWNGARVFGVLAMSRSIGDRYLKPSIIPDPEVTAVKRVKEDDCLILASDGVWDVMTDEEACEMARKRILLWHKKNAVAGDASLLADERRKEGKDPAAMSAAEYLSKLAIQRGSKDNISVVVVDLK

CC1=CC(=O)CC(C)(C)[C@@]1(O)/C=C/C(C)=C\C(=O)O [Abscisic acid]
change in editing efficiency on addition of small molecule: strong increase in the editing efficiency
